The record followed here is patent publication US20070185013A1, “Use of chk1 inhibitors to control cell proliferation” (ICOS CORPORATION, priority 2003, published 2007).

Each structure is given as a SMILES string. Entries after “also recorded” stand apart in the source; their conditions may differ.

For assay [1], the system named is tumor cells. In words: Cell-based proliferation (sensitization) assay (Example 2). The settings on record: ratio of GI90 of the chemotherapy agent in absence to that in presence of Chk1 inhibitor. The method, then: Chk1 inhibitors were tested in a cell-based proliferation assay for the ability to sensitize tumor cells to ionizing radiation or chemotherapy agents. Chk1 inhibitors were tested in combination with 5-FU, gemicitabine, ionizing radiation, camptothecin, etoposide, hydroxyurea, cisplatin, fludarabine, Ara-C and aphidicolin. For each experiment, a serial dilution of each compound in combination with a ten-point dilution of each chemotherapy agent was included, in order to determine the concentration of chemotherapeutic required to inhibit the growth of 90% (GI90) of the cells in the presence and absence of the Chk1 inhibitor. This ratio of GI90 in the absence of Chk1 inhibitor to that in the presence of Chk1 inhibitor is called the “fold sensitization.” Fold sensitization was plotted as a function of Chk1 inhibitor concentration and the amount of drug required to yield two-fold sensitization was calculated. […] Another parameter analyzed was the fold sensitization achieved at the LD50 (the dose of compound alone that inhibits growth of 50% of cells) for the compound. These two values allow direct ranking of both the potency and toxicity of Chk1 inhibitors with respect to one another.

Assay [2] relates to Chk1. In words: Chk1 serine 296 phosphorylation, Western blot in HT29 cells. Type of assay: cell-based, human. The settings on record: HT29 cells, 20 μM gemcitabine for two hours, 22 additional hours. The procedure:
Phosphorylation at this site is not inhibited by Wortinannin, which inhibits Atm and Atr. Therefore the phosphorylation of serine 296 is distinct from phosphorylation at serines 317 and 345 described in Example 12. […] Therefore, this approach may be used to monitor Chk1 activity in tumors in response to Chk1 activators. Further, this approach may be used to measure inhibition of Chk1 activation by Chk1 inhibitors.
Thus, HT 29 cells were treated with 20 μM gemcitabine for two hours. The gemcitabine was washed out of the cell growth media and cells were incubated for 22 additional hours. Protein lysates were prepared and separated by an SDS-polyacrylamide gel electrophoresis. Proteins were transferred to polyvinylidene fluoride (PVDF) membranes and probed with antisera (Cell Signalling) specific for phosphorlyated serine 296 (Cell Signalling). […] Further, HT29 cells treated with selective Chk1 inhibitors for 15 minutes show no serine 296 phosphorylation.
(In general: Immunoblotting shows a protein as a band on a membrane.)

The test system of assay [3] is Chk1. In words: Chk1 serine 317 and 345 phosphorylation, Western blot in HT29 cells. Type of assay: cell-based, human. The settings on record: 20 μM gemcitabine for two hours, 22 additional hours. The text has this: To determine whether an agent is a Chk1 activator, the phosphorylation state of Chk1 can be measured using phospho-specific antibodies to specific phosphorylation sites on Chk1. […] Liu, Q., et al., (2000) Genes Dev. 14, 1448-1459; Zhao, H., et al., (2001) Mol. Cell. Biol. 21, 4129-4139; Lopez-Girona, A., et al., (2001) Proc. Natl. Acad. Sci. U.S.A. 98, 11289-11294; Guo, Z., et al., (2000). Genes Dev. 14, 2745-2756; Gatei, M., et al., (2003) J. Biol. Chem. 278, 14806-14811; Ng C P, et al., J Biol Chem. 2004 Mar. 5; 279(10):8808-19; Wang Y, et al., Natl Acad Sci USA. 2003 Dec. 23; 100(26):15387-92; Stojic L, et al., Genes Dev. 2004 Jun. 1; 18(11):1331-44. These serine sites are phosphorylated by upstream checkpoint kinases, Atm and Atr. Liu, Q., et al., S. J. (2000) Genes Dev. 14, 1448-1459; Zhao, H., et al. (2001) Mol. Cell. Biol. 21, 4129-4139).
The phosphorylation of these sites in response to a candidate Chk1 activator can be monitored by Western blot or immunohistochemistry of tumor cells. […] HT29 cells were treated with 20 μM gemcitabine for two hours. The gemcitabine was washed out of the cell growth media and cells were incubated for 22 additional hours. Protein lysates were prepared and separated by an SDS-polyacrylamide gel electrophoresis. […]

For the compound `Nc1ccn([C@@H]2O[C@H](CO)[C@@H](O)C2(F)F)c(=O)n1` [gemcitabine], the “Fold Sensitization to Agent by Chk1 Inhibitor” value in assay [1] amounted to 12 fold. Also, in assay [2], the “phosphorylation of Chk1 serine 296” value was “stimulated; also recorded: results in the phosphorylation of serine 296”. Also, in assay [3], the “phosphorylation of Chk1 serines 317 and 345” value was “results in the phosphorylation of both serines 317 and 345”.
